The text below walks through data of publication PMC11052077, “Discovery of Dolutegravir Derivative against Liver Cancer via Inducing Autophagy and DNA Damage” (Molecules, 2024).

In series [1] the test system is Huh7 cells. The series can be described thus: Plate clone formation assay. The series is classed as cell-based, human. To be noted: 0, 2, 4, 8, 16, 32 μM, 48 h. On the procedure:
(§1) To further assess the anti-proliferative activity of dolutegravir derivatives, LIVE/DEAD staining was conducted. Huh7 cells were treated with 5 μM or 10 μM of 5e and 5p for 24 h, followed by live and dead cell imaging and quantification. […] This may be attributed to significant cell proliferation suppression at 10 μM concentration, leading to a limited number of viable cells. Furthermore, to validate the impact of dolutegravir derivatives on cell proliferation, a plate clone formation assay was performed. Cells were exposed to various concentrations (0, 2, 4, 8, 16, and 32 μM) of 5e or 5p.
Huh7 cells were seeded into 6-well plates at a density of 100–500 cells/well. After 10 days culture, cells were added with 5e or 5p at different concentrations (0, 2 μM, 4 μM, 8 μM, 16 μM, 32 μM) for 48 h. Then, cells were fixed by 4% paraformaldehyde and stained by Giemsa dye. An optical microscope was used to photograph cells and the clone numbers were counted.

The subject of series [2] is Huh7 cells. Kind of series: Cellular ROS measurement (DCFH-DA). To be noted: 5, 10 and 20 μM, 24 h, Huh7, DCFH-DA staining. Format: cell-based, human. On the procedure:
Reactive oxygen species (ROS) play a crucial role in inducing cell death and inhibiting cell growth and proliferation. To investigate the impact of compounds 5e and 5p on ROS generation, various cancer cells were treated with 5e or 5p for 24 h. Subsequently, cells were stained with DCFDA [26], and ROS levels were visualized using a fluorescent microscope (Thermo, Beijing, China).
Huh7 cells were cultured in 96-well plates in a density of 5 × 10^3 cells/well. Different concentrations (0, 5, 10 and 20 μM) of 5e or 5p were added to cells, respectively, for 24 h. After treatment, cells were stimulated with 10 μM DCFH-DA for 30 min in 37 °C and then observed and photographed using the fluorescent microscope.

The test system of another series is γ-H2AX in HepG2 cells. Kind of series: γ-H2AX immunofluorescence, HepG2. The series is classed as cell-based, human. To be noted: HepG2, 72 h. On the procedure: The phosphorylation of H2AX serves as a highly specific and sensitive molecular marker for DNA damage. Through Western blotting, we have confirmed that compounds 5e and 5p induce DNA damage in Huh7 and HepG2 cells. To further substantiate the inhibitory effect of compounds 5e and 5p on Huh7 cells, immunofluorescence was employed to assess their correlation with γ-H2AX.
The HepG2 cells (1 × 10^6) were plated in laser confocal dishes (Nest, Wuxi, China), before Compound 5e and 5p were treated for 72 h. Then, 4% paraformaldehyde was added to each laser confocal dishes for 20 min, after rinsing with PBS. The Triton X-100 was used to penetrate the cells for 20 min. Before the cells were incubated with p-H2AX (Cell Signaling Technology, Danvers, MA, USA) at 1:800 dilution at 4 °C overnight, goat serum was used to block for 30 min. Subsequently, the HepG2 were rinsed with PBS and incubated with Alexa Fluor 488 (Proteintech, Wuhan, China) at a 1:1000 dilution in the dark at room temperature for 1 h. DAPI was added to each laser to stain the cell nucleus for 5 min. Then, the cells were observed under a laser confocal microscope (Nikon, Tokyo, Japan), after rinsing with PBS.

In series [3] the test system is Huh7 cells. The series can be described thus: CCK8 cell viability assay, Huh7. The series is classed as cell-based, human. On the procedure:
This study aimed to assess the anti-proliferative activity of dolutegravir-1,2,3-triazole derivatives on hepatocellular carcinoma cell lines, Huh7 and hepG2. A comprehensive CCK8 assay was employed to evaluate the impact of these compounds on cell viability, with cells treated at a concentration of 20 μM for 48 h. HRM cells, a normal cell line, were included as a control for comparative analysis.
Human hepatocellular carcinoma cell lines Huh7 and hepG2 were obtained from ATCC (Manassas, VA, USA). Cells were cultured in DMEM or RPMI 1640 medium containing 10% FBS and 1% penicillin/streptomycin at 37 °C with a 5% CO2-humidified atmosphere.
(§2) CCK8 assay was used to measure cell viability. Cells with a density of 1 × 10^4 cells/well were seeded on 96-well plates. After adhesion, cells were treated with different diluted compounds or vehicle control DMSO and continued to be cultured for 48 h or 72 h, respectively. Then, CCK8 reagent was added for one hour incubation at 37 °C with 5% CO2. Absorbance was measured using a Microplate spectrophotometer (Thermo, Waltham, MA, USA) at 450 nm. The ratio of cell viability of control was taken as 100%. […] Then, IC50 of compounds were investigated using the prism statistical software 7.0.
For orientation: Tetrazolium assays rely on reduction of a dye to a coloured formazan, in cell work by metabolically active cells.

In the next series the test system is Caspase3. The series can be described thus: Western blot, Caspase3. Format: cell-based, human. To be noted: 2, 4, 8 μM, 48 h, Huh7, western blot. As for the experimental part:
To elucidate the impact of compounds 5e and 5p on the regulation of cell proliferation, we examined the expression levels of key proteins involved in cell growth processes, encompassing autophagy, apoptosis, cell cycle, and DNA damage (Figure 7).
Protein expression levels were measured by western blot. Huh7 cells were cultured in 12-well plates and different concentrations (0, 2, 4, 8 μM) of 5e and 5p were added for 48 h. Proteins were extracted from whole cells using radio-immunoprecipitation assay (RIPA) buffer containing a protease/phosphatase inhibitor cocktail (CST). Then, 10–15% sodium dodecyl sulfate polyacrylamide gel electrophoresis and nitrocellulose membranes (Millipore) were employed to separate and collect proteins. Antibodies used include LC3 (3868s, CST), Caspase3 (9662, CST), cyclin D (2922s, CST), cyclin E (20808s, CST), γH2AX (9718s, CST), β-Catenin (9562s, CST), and β-actin (4967s, CST).
In general terms: In western blotting, separated proteins are transferred to a membrane and probed.

Series [4] has as its system HRM cells (human renal mesangial cells). Kind of series: in vitro. The series is classed as cell-based. To be noted: 20 µM. As for the experimental part: This study aimed to assess the anti-proliferative activity of dolutegravir-1,2,3-triazole derivatives on hepatocellular carcinoma cell lines, Huh7 and hepG2. A comprehensive CCK8 assay was employed to evaluate the impact of these compounds on cell viability, with cells treated at a concentration of 20 μM for 48 h. HRM cells, a normal cell line, were included as a control for comparative analysis. […]
as §2

In series [5] the test system is Huh7 cells. The series can be described thus: LIVE/DEAD staining (live and dead cell measurement). Format: cell-based, human. To be noted: 5 μM or 10 μM, 24 h. On the procedure:
as §1
Huh7 cells with a density of 5 × 10^3 cells/well were seeded on 96-well plates. Then, different concentrations (0, 5 μM, 10 μM) of 5e or 5p were treated for 24 h. Cells were then stained with the LIVE/DEAD Assay Kit, observed and photographed using the fluorescent microscope.

Take `COc1c2n(cc(C(=O)Nc3cccc(-c4cn(-c5cccc(C(F)(F)F)c5)nn4)c3)c1=O)CC1OCCC(C)N1C2=O` (stereo not drawn) [Compound 5p]: in the series with Huh7 cells [1], the plate clone formation entry is listed as “dose-dependent anti-proliferative activity”. Further, the ROS generation entry with Huh7 cells [2] is listed as “significant increase in ROS generation”. The “γ-H2AX expression by immunofluorescence” value in the series on γ-H2AX in HepG2 cells is reported as “increased the expression of γ-H2AX”. In the series on Huh7 cells [3] (20 μM, Huh7, CCK8, control taken as 100%), the “Cell Viability (100%), 20 μM, 48 h, Huh7” value is reported as 5.93%. The IC50 in the series on Huh7 cells [3] (48 h, Huh7, CCK8, read-out: half maximal inhibitory concentration (IC50), Huh7) came to 5.42 ± 0.43 µM. In addition, the Caspase3 protein expression result in the series on Caspase3 is listed as “remained unchanged”. Moreover, the “Cell Viability (100%), 20 μM, 48 h, HRM” value in series [4] is 16.33%. Further, in the series on Huh7 cells [5], the “live Huh7 cells (LIVE/DEAD staining)” value is listed as “decreased with increasing concentration” and the “ratio of dead to live cells” value is reported as “increased compared to the untreated group”.
